According to patent US8183271B2, “Tetrazole derivatives and their use for the treatment of cardiovascular diseases” (Bayer Intellectual Property GmbH, priority 2005, dated 2012):

Experiments:
[1] = target: T1, Heme-containing sGC (recombinant soluble guanylate cyclase) (Rattus norvegicus, UniProt P20595); experiment: Stimulation of recombinant soluble guanylate cyclase (sGC) in vitro, heme-containing enzyme; assay type: biochemical
T1 construct: made in house
T1 sequence (P20595 1-619): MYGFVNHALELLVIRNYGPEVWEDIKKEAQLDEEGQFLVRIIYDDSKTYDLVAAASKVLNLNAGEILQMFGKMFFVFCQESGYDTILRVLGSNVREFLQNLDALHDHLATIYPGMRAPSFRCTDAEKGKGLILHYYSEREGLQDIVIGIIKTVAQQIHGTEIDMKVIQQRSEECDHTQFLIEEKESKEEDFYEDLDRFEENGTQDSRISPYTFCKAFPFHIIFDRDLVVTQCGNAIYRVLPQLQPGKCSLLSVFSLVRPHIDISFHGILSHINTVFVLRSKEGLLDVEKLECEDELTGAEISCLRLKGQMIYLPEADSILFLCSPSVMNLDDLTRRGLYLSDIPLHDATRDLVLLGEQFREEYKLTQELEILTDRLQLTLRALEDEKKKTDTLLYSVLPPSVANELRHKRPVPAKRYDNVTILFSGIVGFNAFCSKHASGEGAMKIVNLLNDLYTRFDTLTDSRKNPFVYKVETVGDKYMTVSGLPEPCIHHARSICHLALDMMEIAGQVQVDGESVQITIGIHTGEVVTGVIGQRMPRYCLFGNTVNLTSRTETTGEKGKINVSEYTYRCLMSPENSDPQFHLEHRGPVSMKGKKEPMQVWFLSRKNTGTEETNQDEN
T1 sequence (P19686 1-690 partner): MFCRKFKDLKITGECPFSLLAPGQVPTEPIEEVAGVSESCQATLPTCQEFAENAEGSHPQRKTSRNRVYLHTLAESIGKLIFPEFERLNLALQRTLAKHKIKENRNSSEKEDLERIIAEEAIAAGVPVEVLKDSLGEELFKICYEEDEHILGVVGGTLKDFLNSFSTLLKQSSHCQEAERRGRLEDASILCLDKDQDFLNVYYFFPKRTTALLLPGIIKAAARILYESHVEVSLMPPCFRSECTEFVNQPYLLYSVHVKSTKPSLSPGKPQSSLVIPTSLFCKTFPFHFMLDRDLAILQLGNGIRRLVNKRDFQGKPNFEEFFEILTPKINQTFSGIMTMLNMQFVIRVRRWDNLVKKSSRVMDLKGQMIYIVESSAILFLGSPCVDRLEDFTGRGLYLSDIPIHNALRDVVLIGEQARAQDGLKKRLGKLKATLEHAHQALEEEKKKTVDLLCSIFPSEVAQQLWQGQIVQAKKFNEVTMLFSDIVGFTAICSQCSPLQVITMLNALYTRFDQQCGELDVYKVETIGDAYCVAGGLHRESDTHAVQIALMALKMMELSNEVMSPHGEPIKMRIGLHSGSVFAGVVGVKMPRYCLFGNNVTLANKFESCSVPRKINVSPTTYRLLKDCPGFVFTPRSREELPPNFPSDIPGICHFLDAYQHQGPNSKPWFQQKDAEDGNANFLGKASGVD
Text: Hoenicka, E. M. Becker, H. Apeler, T. Sirichoke, H. Schroeder, R. Gerzer and J.-P. Stasch, “Purified soluble guanylyl cyclase expressed in a baculovirus/Sf9 system: Stimulation by YC-1, nitric oxide, and carbon oxide”, J. Mol. Med. 77 (1999), 14-23. The heme-free guanylate cyclase is obtained by adding Tween 20 to the sample buffer (0.5% in the final concentration).
(§1) The activation of sGC by a test substance is reported as n-fold stimulation of the basal activity.

[2] = target: T2, Heme-free sGC (recombinant soluble guanylate cyclase) (Rattus norvegicus, UniProt P20595); experiment: Stimulation of recombinant soluble guanylate cyclase (sGC) in vitro, heme-free enzyme; assay type: biochemical
T2 construct: made in house
T2 sequence (P20595 1-619): T1 sequence (P20595 1-619)
T2 sequence (P19686 1-690 partner): T1 sequence (P19686 1-690 partner)
Method: Investigations on the stimulation of recombinant soluble guanylate cyclase (sGC) by the compounds according to the invention with and without sodium nitroprusside, and with and without the heme-dependent sGC inhibitor 1H-1,2,4-oxadiazole-(4,3a)-quinoxalin-1-one (ODQ) are carried out by the method described in detail in the following reference: M. Hoenicka, E. M. Becker, H. Apeler, T. Sirichoke, H. Schroeder, R. Gerzer and J.-P. Stasch, “Purified soluble guanylyl cyclase expressed in a baculovirus/Sf9 system: Stimulation by YC-1, nitric oxide, and […]”, J. Mol. Med. 77 (1999), 14-23. The heme-free guanylate cyclase is obtained by adding Tween 20 to the sample buffer (0.5% in the final concentration).
as §1

Stimulation (n-fold) Heme-containing sGC Basal ([1]; 0.001 μM Example 6): 1.9 n-fold
Stimulation (n-fold) Heme-containing sGC +0.1 μM DEA/NO ([1]; 0.001 μM Example 6 + 0.1 μM DEA/NO): 62.0 n-fold
Stimulation (n-fold) Heme-containing sGC +10 μM ODQ ([1]; 0.001 μM Example 6 + 10 μM ODQ): 4.8 n-fold
Stimulation (n-fold) Heme-containing sGC Basal ([1]; 0.01 μM Example 6): 5.1 n-fold
Stimulation (n-fold) Heme-containing sGC +0.1 μM DEA/NO ([1]; 0.01 μM Example 6 + 0.1 μM DEA/NO): 66.0 n-fold
Stimulation (n-fold) Heme-containing sGC +10 μM ODQ ([1]; 0.01 μM Example 6 + 10 μM ODQ): 25.7 n-fold
Stimulation (n-fold) Heme-containing sGC Basal ([1]; 0.1 μM Example 6): 20.2 n-fold
Stimulation (n-fold) Heme-containing sGC +0.1 μM DEA/NO ([1]; 0.1 μM Example 6 + 0.1 μM DEA/NO): 80.0 n-fold
Stimulation (n-fold) Heme-containing sGC +10 μM ODQ ([1]; 0.1 μM Example 6 + 10 μM ODQ): 102.7 n-fold
Stimulation (n-fold) Heme-containing sGC Basal ([1]; 1 μM Example 6): 29.5 n-fold
Stimulation (n-fold) Heme-containing sGC +0.1 μM DEA/NO ([1]; 1 μM Example 6 + 0.1 μM DEA/NO): 96.2 n-fold
Stimulation (n-fold) Heme-containing sGC +10 μM ODQ ([1]; 1 μM Example 6 + 10 μM ODQ): 125.8 n-fold
Stimulation (n-fold) Heme-containing sGC Basal ([1]; 10 μM Example 6): 42.1 n-fold
Stimulation (n-fold) Heme-containing sGC +0.1 μM DEA/NO ([1]; 10 μM Example 6 + 0.1 μM DEA/NO): 99.9 n-fold
Stimulation (n-fold) Heme-containing sGC +10 μM ODQ ([1]; 10 μM Example 6 + 10 μM ODQ): 135.0 n-fold
Effect of combination with the NO donor DEA/NO on sGC stimulation ([1]; combination of Example 6 and DEA/NO): no synergistic effect
Effect of the heme-dependent sGC inhibitor ODQ on sGC activation ([1]; with ODQ, effect in fact increased): not blocked
Stimulation (n-fold) Heme-free sGC Basal ([2]; 0.001 μM Example 6): 3.2 n-fold
Stimulation (n-fold) Heme-free sGC +10 μM ODQ ([2]; 0.001 μM Example 6 + 10 μM ODQ): 3.0 n-fold
Stimulation (n-fold) Heme-free sGC Basal ([2]; 0.01 μM Example 6): 20.4 n-fold
Stimulation (n-fold) Heme-free sGC +10 μM ODQ ([2]; 0.01 μM Example 6 + 10 μM ODQ): 18.9 n-fold
Stimulation (n-fold) Heme-free sGC Basal ([2]; 0.1 μM Example 6): 90.9 n-fold
Stimulation (n-fold) Heme-free sGC +10 μM ODQ ([2]; 0.1 μM Example 6 + 10 μM ODQ): 89.7 n-fold
Stimulation (n-fold) Heme-free sGC Basal ([2]; 1 μM Example 6): 143.8 n-fold
Stimulation (n-fold) Heme-free sGC +10 μM ODQ ([2]; 1 μM Example 6 + 10 μM ODQ): 143.8 n-fold
Stimulation (n-fold) Heme-free sGC Basal ([2]; 10 μM Example 6): 145.9 n-fold
Stimulation (n-fold) Heme-free sGC +10 μM ODQ ([2]; 10 μM Example 6 + 10 μM ODQ): 149.3 n-fold
Structure (SMILES): CC(C)(C)c1ccc(COc2ccccc2/C=C/C(CCc2ccc(-c3nnn[nH]3)cc2)Cc2ccc(C(=O)O)cc2)cc1 (single isomer, unassigned) [Example 6, 4-((3E)-4-{2-[(4-tert-Butylbenzyl)oxy]phenyl}-2-{2-[4-(1H-tetrazol-5-yl)phenyl]ethyl}but-3-en-1-yl)benzoic acid]
